This assay addresses Cyclin-dependent kinase 2 (Homo sapiens, UniProt P24941). Description: In Vitro Inhibition. The text has this: In vitro inhibition assay using human recombinant CDK2 and human recombinant cyclin A2.

The structures appear in SMILES notation. pIC50: −log10 of the molar value.

`O=[N+]([O-])c1cccc(Nc2nccc(-c3cccc(Cn4cncn4)c3)n2)c1` [N-(3-nitrophenyl)-4-[3-(1H-1,2,4-triazol-1-ylmethyl)phenyl]pyrimidin-2-amine, 6] gave a pIC50 of 6.60.

The values above are taken from BindingDB's records for doi:10.1016/j.chembiol.2005.11.011 (Cyclacel, 2006).
